Two compounds from PubChem BioAssay AID1259407 (Chemical Carcinogenesis Research Information System (CCRIS), 2018) can be followed below.

Structures are written as SMILES. Calls of active or inactive are those of the source. No rule for the calls is given here.

The series concerns CCRIS mutagenicity, Ames/micronucleus/aberration tests. Briefly: CCRIS mutagenicity studies.

`C=C(C#N)C(=O)OC`: the mutagenic call runs as follows: (Test System: AMES SALMONELLA TYPHIMURIUM, Strain/Indicator: TA98, Metabolic Activation: HAMSTER, LIVER, S-9, AROCLOR 1254 (10%), Method: PREINCUBATION) “inactive; negative”; (Test System: AMES SALMONELLA TYPHIMURIUM, Strain/Indicator: TA98, Metabolic Activation: NONE, Method: PREINCUBATION) “inactive; negative”; (Test System: AMES SALMONELLA TYPHIMURIUM, Strain/Indicator: TA98, Metabolic Activation: RAT, LIVER, S-9, AROCLOR 1254 (10%), Method: PREINCUBATION) “inactive; negative”; (Test System: AMES SALMONELLA TYPHIMURIUM, Strain/Indicator: TA100, Metabolic Activation: HAMSTER, LIVER, S-9, AROCLOR 1254 (10%), Method: PREINCUBATION) “active; positive”; (Test System: AMES SALMONELLA TYPHIMURIUM, Strain/Indicator: TA100, Metabolic Activation: NONE, Method: PREINCUBATION) “active; positive”; (Test System: AMES SALMONELLA TYPHIMURIUM, Strain/Indicator: TA100, Metabolic Activation: NONE, Method: SPOT TEST) “active; positive”. Also, the mutagenic call (Test System: AMES SALMONELLA TYPHIMURIUM, Strain/Indicator: TA100, Metabolic Activation: NONE, Method: STANDARD PLATE) is “active; positive”; the mutagenic call (Test System: AMES SALMONELLA TYPHIMURIUM, Strain/Indicator: TA100, Metabolic Activation: RAT, LIVER, S-9, AROCLOR 1254 (10%), Method: PREINCUBATION) was “active; positive”; the mutagenic call (Test System: AMES SALMONELLA TYPHIMURIUM, Strain/Indicator: TA100, Metabolic Activation: RAT, LIVER, S-9, AROCLOR 1254, Method: SPOT TEST) is “active; positive”; the mutagenic call (Test System: AMES SALMONELLA TYPHIMURIUM, Strain/Indicator: TA100, Metabolic Activation: RAT, LIVER, S-9, AROCLOR 1254, Method: STANDARD PLATE) was “active; positive”; the mutagenic call (Test System: AMES SALMONELLA TYPHIMURIUM, Strain/Indicator: TA1535, Metabolic Activation: HAMSTER, LIVER, S-9, AROCLOR 1254 (10%), Method: PREINCUBATION) was “inactive; negative”; the mutagenic call (Test System: AMES SALMONELLA TYPHIMURIUM, Strain/Indicator: TA1535, Metabolic Activation: NONE, Method: PREINCUBATION) was “inactive; negative”. Moreover, the mutagenic call (Test System: AMES SALMONELLA TYPHIMURIUM, Strain/Indicator: TA1535, Metabolic Activation: RAT, LIVER, S-9, AROCLOR 1254 (10%), Method: PREINCUBATION) is “inactive; negative”; the mutagenic call (Test System: AMES SALMONELLA TYPHIMURIUM, Strain/Indicator: TA1537, Metabolic Activation: HAMSTER, LIVER, S-9, AROCLOR 1254 (10%), Method: PREINCUBATION) is “inactive; negative”; the mutagenic call (Test System: AMES SALMONELLA TYPHIMURIUM, Strain/Indicator: TA1537, Metabolic Activation: NONE, Method: PREINCUBATION) was “inactive; negative”; the mutagenic call (Test System: AMES SALMONELLA TYPHIMURIUM, Strain/Indicator: TA1537, Metabolic Activation: RAT, LIVER, S-9, AROCLOR 1254 (10%), Method: PREINCUBATION) was “inactive; negative”.

With `CN(N=O)C(=O)Nc1ccc(Cl)cc1`, the mutagenic call (End Point: IN VITRO CHROMOSOMAL ABERRATIONS, Test System: CHINESE HAMSTER V79-E CELLS, Metabolic Activation: NONE) was “active; weakly positive”.
